Measured values taken from the METLIN SMRT retention time set (Domingo-Almenara et al. 2019).

Experiment: gradient 5% acetonitrile 3 min, to 50% in 2 min, to 85% in 15 min, held 3 min, 100 µL/min
Conditions: column: Zorbax Extend-C18 2.1 x 50 mm; eluents: water / acetonitrile, 0.1% formic acid
Summary of the method: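 Over 3 months, pure standards in mixtures of ~100 molecules were run by HPLC coupled to a quadrupole time-of-flight mass spectrometer in positive and negative ionization mode. The column was a Zorbax Extend-C18 (2.1 × 50 mm, 1.8 μm) at 100 μL/min, eluted with water and acetonitrile each holding 0.1% formic acid, with 40 μL dead and 900 μL dwell volumes. Retention time was determined from adduct peaks chosen by software and checked manually.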

| Compound | RP-LC retention time [s] |
| --- | --- |
| CS(=O)(=O)NC1CCN(C(=O)C2CCCC2)C1 (centres undefined) | 691 |
| Cc1cc(=O)n(CC(=O)Nc2cc(F)ccc2F)c(-c2ccc(F)cc2)n1 | 1090 |
| CCOc1ccc(/C=C/C(=O)Nc2nc(-c3ccc(C)cc3)c(C)s2)cc1 | 726 |
| Cc1ccc2cc(CN3CCC4(CC3)CC(C)(O)CCO4)c(=O)[nH]c2c1 (centres undefined) | 603 |
| COC(=O)c1sccc1NC(=O)N1CCc2c([nH]c3ccccc23)C1c1ccc(OC)cc1 (centres undefined) | 1230 |
| COc1ccc(S(=O)(=O)NCCCn2ccnc2)cc1C(C)(C)C | 589 |
| COC(=O)C1=CCCCCC(N2CCOCC2)=C1C(=O)OC | 684 |
| CCN(CC)c1ncnc2c(-c3ccccc3)cn(CC(=O)NCCc3ccc(OC)c(OC)c3)c12 | 726 |
| Cc1ccc(NC(=O)Cn2cnc3c(sc4nc(-c5ccccc5)ccc43)c2=O)cc1Cl | 1120 |
| O=C(c1ccc2c(c1)OCO2)N1CCC2(CC1)N=C(c1ccccc1)NO2 | 858 |
| CCN1C=C(C(=O)OCc2cc(C)ccc2C)C(C)=NS1(=O)=O | 1060 |
| OC[C@H]1O[C@@H](c2ccc(Cl)c(Cc3ccc(O[C@H]4CCOC4)cc3)c2)[C@H](O)[C@@H](O)[C@@H]1O | 736 |
| Cc1nc(-c2ccc(NC(=O)N3CCCc4ccccc43)cc2)no1 | 900 |
| C=CCc1ccccc1OCC(O)CNC(C)C (centres undefined) | 706 |
| O=C1CN(Cc2ccc3c(c2)OCO3)C2CS(=O)(=O)CC2N1c1cccc(Cl)c1 (centres undefined) | 770 |
| CCOc1cccc(-c2noc(Cn3ccnc3)n2)c1 | 635 |
| COc1ccc(C2CC(=O)c3c(C)nn(-c4nc5ccccc5[nH]4)c3C2)c(OC)c1 (centres undefined) | 1020 |
| O=C(NCc1cccnc1-c1ccc(F)cc1)c1ccc(Br)cc1 | 735 |
| Cc1csc(-c2cc(S(=O)(=O)N3CCc4ccccc4C3)c(C)s2)n1 | 1160 |

| Compound | RP-LC retention time [s] |
| --- | --- |
| CCn1cc(C)c(C(=O)O)c1CC(=O)N(C)c1ccc(C)c(C)c1 | 1000 |
| CCOc1ccc(NC(=O)N2CCc3cn(CC)c4cccc(c34)C2)cc1 | 952 |
| CC(C)c1ccc(-c2nc(-c3cccc(-c4ccnn4C)c3)no2)cc1 | 1390 |
| COCCOc1nc(N)c2[nH]c(=O)n(Cc3ccccc3)c2n1 | 676 |
| CCN1C(=O)C(C)(C)COc2ccc(NC(=O)Cc3ccc(F)cc3)cc21 | 889 |
| C=C(C)[C@@H]1CC=C(C(=O)O)CC1 | 875 |
| CCc1c(C(=O)O)nnn1-c1cccc(Br)c1 | 757 |
| O=C(CSc1ncccc1C(=O)O)Nc1nc(-c2ccccc2)cs1 | 822 |
| Cc1cccc(C(C)c2cnc[nH]2)c1C (centres undefined) | 689 |
| Cc1c(-c2ccnc(N3CCN(Cc4ccccc4)CC3)n2)cnc2nc(-c3ccc(Cl)cc3)nn12 | 796 |
| Cc1noc(C)c1CC(=O)N1C[C@H]2C[C@H](C1)[C@H]1CCCC(=O)N1C2 | 599 |
| Cc1ccccc1-c1noc(-c2nc(-c3ccncc3)no2)n1 | 1090 |
| CC(C)NC(=O)c1cccc(Nc2c(-c3ccccc3)nc3cnccn23)c1 | 719 |
| O=C(c1ccoc1)N1CCC2(CC1)N=C(c1cccc(Br)c1)NO2 | 763 |
| O=c1c2nnc3c(-c4ccc(F)cc4)cnn3c2ccn1CCc1c[nH]c2ccc(F)cc12 | 950 |
| COC(=O)c1ccc(NC(=O)N2CC(N(C3CCOCC3)S(C)(=O)=O)C2)cc1 | 686 |
| COc1cc(CNC(=O)C2=Cc3ccccc3OC2)cc(OC)c1OC | 835 |
| CCN(CC)C(=O)c1ccc2c(c1)N(Cc1ccc(C)cc1)C(=O)CO2 | 588 |
| CCOC(=O)COc1cc(-c2ccc(F)cc2)nc2ccc(NC(=O)COc3ccccc3)cc12 | 924 |

| Compound | RP-LC retention time [s] |
| --- | --- |
| COc1ccc(Cn2nc3c(S(=O)(=O)N4CCc5ccccc5C4)cccn3c2=O)cc1 | 946 |
| O=C(Nc1cccc(Cl)c1)N1CCc2nc(-c3ccccc3)ncc2C1 | 997 |
| O=C(Nc1cc(-c2ccsc2)no1)c1ccc(Cl)s1 | 1030 |
| CN(C)c1cccc(-c2nc(-c3ccc4nnn(C)c4c3)no2)c1 | 1070 |
| CC(C)C(=O)Nc1cnc(-c2ccccc2)nc1 | 814 |
| COC(=O)c1c(C)[nH]c(C(=O)N2CCC(CC(=O)N(C)Cc3ccco3)CC2)c1C | 728 |
| Cc1nc(-c2cccc(F)c2)sc1CCNC(=O)Nc1ccc2c(c1)OCO2 | 817 |
| COC(=O)c1cc(S(=O)(=O)N2CCCC2C(=O)Nc2cc(OC)cc(OC)c2)cn1C (centres undefined) | 867 |
| Cc1cccc(NC(=O)N2CCc3nc(-c4ccc(Cl)cc4)ncc3C2)c1 | 1080 |
| Cc1ccc(NC(=O)Cn2cnc3c(sc4nc(-c5ccccc5)ccc43)c2=O)c(Cl)c1 | 1120 |
| CCOc1ccc(-c2nc(-c3cccc(-c4ccn[nH]4)c3)no2)cc1 | 999 |
| Cc1oc(-c2[nH]ncc2C(=O)N2CCCC2)cc1S(=O)(=O)Nc1ccc(F)cc1F | 698 |
| CC1(C)c2ccccc2-c2nc3ccccc3cc2C1O (centres undefined) | 890 |
| COc1ccc(OCc2nnc3sc(-c4ccc5ccccc5n4)nn23)cc1 | 1040 |
| Cc1ccc(CNC(=O)C2(C)CCN(C(=O)Nc3ccc(C)c(Cl)c3)CC2)cc1 | 972 |
| Cc1cc2cc(CNC(=O)NC3CC(=O)N(c4ccccc4)C3)ccc2[nH]1 (centres undefined) | 668 |
| Cc1noc(C)c1C(=O)N1CCCC1Cc1noc(C2CCCC2)n1 (centres undefined) | 820 |
| C=CCN(Cc1nc(-c2cccc(C)c2)no1)C(=O)Nc1ccccc1C | 1080 |
| CN(C)c1nn(CC(=O)Nc2ccc(F)cc2Cl)c(=O)c2ccccc12 | 913 |

More lines, now with the values ahead:

| RP-LC retention time [s] | Compound |
| --- | --- |
| 933 | CCCCc1cc(=O)oc2cc(C)cc(OCC(=O)N3CCC4(O)CCCCC4C3)c12 (centres undefined) |
| 534 | Cc1cc(=O)n(CC(=O)N2CCOCC2)c(N2CCOCC2)n1 |
| 1150 | Cc1ccc(CNC(=O)C2CCCN(c3nc4ccccc4n(Cc4ccccc4)c3=O)C2)o1 (centres undefined) |
| 754 | COC(=O)c1c(C)[nH]c(C(=O)N2CCCC(C(=O)NCc3ccc(C)cc3)C2)c1C (centres undefined) |
| 607 | CN(C)c1ncncc1N1CCC(C(=O)NC2CCCCC2)CC1 |
| 631 | CCOc1ccccc1NC(=O)N1CCN(c2cc(C)nc(N3CCOCC3)n2)CC1 |
| 705 | CNC(=O)C1CCCN(c2nc3ncn(CC(=O)Nc4cc(OC)ccc4OC)c(=O)c3s2)C1 (centres undefined) |
| 640 | CN(C(=O)Cn1nc(Cc2cccnc2)c2ccccc2c1=O)C1CCCCC1 |
| 798 | Cc1ccc(CNC(=O)N2CCCC2c2cc(C)on2)cc1 (centres undefined) |
| 874 | Cc1cc(C)cc(NC(=O)C2CCCN(S(=O)(=O)c3c[nH]c(C(=O)N4CCCC4)c3)C2)c1 (centres undefined) |
| 678 | CCc1ccc(NC(=O)Cn2nc3nc(N4CCCC4)ccn3c2=O)cc1 |
| 702 | COc1ccc(C(=O)NC2CCCCCC2)cc1CN1CC(=O)N2CCCC2C1=O (centres undefined) |
| 611 | CCCOc1nc2ccccc2nc1N1CCCC(C(=O)Nc2cc(Cl)ccc2OC)C1 (centres undefined) |
| 734 | CSc1ccc(CNC(=O)C2CCN(c3cncnc3N3CCCCC3)CC2)cc1 |
| 1130 | COC(=O)c1ccccc1NC(=O)C1CCCN(c2ncnc3onc(-c4ccc(F)cc4)c23)C1 (centres undefined) |
| 672 | O=C(NCCc1cccs1)C1CCN(c2cc(N3CCCCC3)ncn2)CC1 |

| RP-LC retention time [s] | Compound |
| --- | --- |
| 580 | CN1C(=O)c2cc(C(=O)NCCN3CCCC3)nn2CC1(C)C(=O)NCc1ccc(F)cc1 (centres undefined) |
| 710 | Cc1ccc(NC(=O)Cn2cnc3nc(N4CCCC(C(=O)NC(C)C)C4)sc3c2=O)c(C)c1 (centres undefined) |
| 841 | CC(C)CCNC(=O)C1CCCN(S(=O)(=O)c2ccc3nc(-c4ccccc4)[nH]c3c2)C1 (centres undefined) |
| 859 | Cc1nc(-c2csc(S(=O)(=O)N3CCC(C(=O)N4CCCCCC4)CC3)c2)no1 |
| 625 | Cc1ccc(-n2nc(C(=O)N3CCN(c4ccccn4)CC3)c(=O)n(C)c2=O)cc1 |
| 604 | CCN1CCN(c2ncc(C(=O)OC)c3ccccc23)CC1 |
| 702 | O=C(NCc1ccccn1)C1CCCN(c2ccc(Sc3ccc(Br)cc3)nn2)C1 (centres undefined) |
| 643 | CCC(NC(=O)C1CCN(c2cncnc2N2CCOCC2)CC1)c1ccc(OC)cc1 (centres undefined) |
| 789 | CCc1ccc(NC(=O)N2CCC(N3CCN(Cc4ccccc4)C(=O)C3=O)CC2)cc1 |
| 832 | O=C(CN1C(=O)C2CCCCN2c2ccc(C(=O)N3CCOCC3)cc21)Nc1ccc(Cl)cc1 (centres undefined) |
| 710 | CCC(=O)NCc1csc(C2CCCN(C(=O)COc3ccccc3)C2)n1 (centres undefined) |
| 600 | CCC1CN2C=NC(N3CCN(C(=O)Nc4ccc(OC)cc4)CC3)=CC2=N1 (centres undefined) |
| 928 | Cc1cc(F)ccc1N1C(=O)CN(S(=O)(=O)c2ccccc2)CC1(C)C(=O)NC1CCCC1 (centres undefined) |
| 696 | CCc1nncn1C1CCN(S(=O)(=O)c2cc(F)ccc2OC)CC1 |
| 1230 | O=C(c1nnc(-c2ccc(S(=O)(=O)N3CCCCC3)cc2)o1)N1CCC(Cc2ccccc2)CC1 |
| 1050 | COc1ccc(-c2nnc(-c3cccc(S(=O)(=O)N4CCC(C)CC4)c3)o2)cc1OC |
